Results on 72 compounds are retold here after patent US6632809B2, “Gyrase inhibitors and uses thereof” (Vertex Pharmaceuticals Incorporated, priority 2000, dated 2003).

Bounds are passed on as bounds.

DNA gyrase (374 kDa Gyr A2B2 subunit from Staphylococcus aureus), sequence (P0A0K8 whole entry): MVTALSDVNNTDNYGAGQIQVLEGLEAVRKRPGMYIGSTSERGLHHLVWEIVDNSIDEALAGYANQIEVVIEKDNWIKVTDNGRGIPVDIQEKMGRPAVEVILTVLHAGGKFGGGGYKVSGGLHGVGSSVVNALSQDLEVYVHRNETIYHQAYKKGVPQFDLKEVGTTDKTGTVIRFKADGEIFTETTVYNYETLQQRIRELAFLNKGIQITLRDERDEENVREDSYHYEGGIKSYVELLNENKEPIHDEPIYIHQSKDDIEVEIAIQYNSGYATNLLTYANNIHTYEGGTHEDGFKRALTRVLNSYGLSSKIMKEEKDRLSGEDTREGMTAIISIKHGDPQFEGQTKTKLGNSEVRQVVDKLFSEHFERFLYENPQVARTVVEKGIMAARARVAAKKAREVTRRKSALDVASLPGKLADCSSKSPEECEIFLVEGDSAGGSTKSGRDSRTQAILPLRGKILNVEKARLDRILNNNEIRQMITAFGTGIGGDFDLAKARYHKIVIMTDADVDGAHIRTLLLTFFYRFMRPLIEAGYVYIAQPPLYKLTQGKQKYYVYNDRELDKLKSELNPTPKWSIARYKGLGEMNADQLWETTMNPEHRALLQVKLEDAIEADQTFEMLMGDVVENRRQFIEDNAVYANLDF
DNA gyrase (374 kDa Gyr A2B2 subunit from Staphylococcus aureus), sequence (P20831 whole entry, further chain): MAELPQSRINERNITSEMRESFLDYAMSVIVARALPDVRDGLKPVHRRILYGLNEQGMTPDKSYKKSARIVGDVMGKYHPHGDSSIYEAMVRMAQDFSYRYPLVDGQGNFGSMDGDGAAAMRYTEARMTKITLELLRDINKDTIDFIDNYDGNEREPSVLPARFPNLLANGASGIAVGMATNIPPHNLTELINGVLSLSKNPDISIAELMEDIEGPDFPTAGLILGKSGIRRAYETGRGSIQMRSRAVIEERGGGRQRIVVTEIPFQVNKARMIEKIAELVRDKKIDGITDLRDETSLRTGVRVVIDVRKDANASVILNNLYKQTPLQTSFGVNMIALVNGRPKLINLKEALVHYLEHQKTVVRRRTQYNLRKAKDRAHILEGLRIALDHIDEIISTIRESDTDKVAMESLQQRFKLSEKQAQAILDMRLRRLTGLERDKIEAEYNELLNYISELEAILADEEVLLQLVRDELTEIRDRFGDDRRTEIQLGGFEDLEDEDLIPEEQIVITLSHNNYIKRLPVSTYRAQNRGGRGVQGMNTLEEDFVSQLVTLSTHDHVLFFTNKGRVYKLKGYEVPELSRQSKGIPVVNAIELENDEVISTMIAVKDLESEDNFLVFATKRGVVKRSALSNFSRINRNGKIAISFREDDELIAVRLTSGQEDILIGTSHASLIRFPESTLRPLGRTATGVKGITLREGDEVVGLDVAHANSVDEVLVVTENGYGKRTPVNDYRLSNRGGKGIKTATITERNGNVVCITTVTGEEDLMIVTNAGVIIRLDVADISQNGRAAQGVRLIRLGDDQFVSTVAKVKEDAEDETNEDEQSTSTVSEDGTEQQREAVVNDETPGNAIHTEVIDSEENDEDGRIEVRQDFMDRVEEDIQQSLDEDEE

In one assay the target is DNA gyrase (374 kDa Gyr A2B2 subunit from Staphylococcus aureus) (Staphylococcus aureus, UniProt P0A0K8). Put plainly: Gyrase ATPase Assay. In kind it is biochemical. The following applies: 10 μM concentration; ATPase assay at 30° C., 0.9 mM ATP; average of duplicate values. As for the experimental part:
The ATP hydrolysis activity of DNA gyrase was measure by coupling the production of ADP through pyruvate kinase/lactate dehydrogenase to the oxidation of NADH. This method has been described previously (Tamura and Gellert, 1990, J. Biol. Chem., 265, 21342).
ATPase assays are carried out at 30° C. in buffered solutions containing 100 mM TRIS pH 7.6, 1.5 mM MgCl2, 50 mM KCl. The coupling system contains (final concentrations) 2.5 mM phosphoenol pyruvate, 200 μM nicotinamide adenine dinucleotide (NADH), 1 mM DTT, […], and 10 ug/ml lactate dehydrogenase. 40 nanomolar enzyme (374 kDa Gyr A2B2 subunit from Staphylococcus aureus) and a DMSO solution of the inhibitor to a final concentration of 4% are added and the reaction mixture is allowed to incubate for 10 minutes at 30° C. The reaction is then started by the addition of ATP to a final concentration of 0.9 mM and the rate of NADH disappearance at 340 nanometers is measured over the course of 10 minutes. The percent inhibition values are determined from rate versus concentration profiles and are reported as the average of duplicate values.
The compound numbers correspond to the compound numbers in Table 1. Compounds having an activity designated as “A” provided a percent inhibition value below 50 percent; compounds having an activity designated as “B” provided a percent inhibition value between 50 and 75 percent; and compounds having an activity designated as “C” provided a percent inhibition value greater than 75 percent.
On to `CCNC(=S)Nc1nc2cc(-c3ccccc3)ccc2[nH]1` [Ia-36], for which the “Gyrase Inhibitory Activity (percent inhibition)” value is listed as “A (provided a percent inhibition value below 50 percent)”.

Still in this assay, the particulars now being: 10 μM concentration; ATPase assay at 30° C., 0.9 mM ATP; average of duplicate values; read-out: Gyrase Inhibitory Activity (percent inhibition).
By inhibition is commonly meant the change of the read-out against control, counted positive when it falls. As for `CCOC(=O)Nc1nc2cc(-c3cncnc3)ccc2[nH]1` [Ia-21], the inhibition at 10 µM is above 75%.

Regarding `CCOC(=O)Nc1nc2cc(-c3cnc(NCCN)nc3)ccc2[nH]1` [Ia-88], the inhibition at 10 µM is above 75%. The same measure, in the same setting: for `CCNC(=O)Nc1nc2cc(-c3cnc(NC(CO)C(=O)O)nc3)ccc2[nH]1` (stereo not drawn) [Ia-45] the value was above 75%. The same measure, in the same setting: with `CCOC(=O)Nc1cncc(-c2ccc3[nH]c(NC(=O)OCC)nc3c2)c1` [Ia-87] the figure was above 75%; with `CCNC(=O)Nc1nc2cc(-c3cnc(NC(COC(C)(C)C)C(=O)OC(C)(C)C)nc3)ccc2[nH]1` (stereo not drawn) [Ia-40], above 75%.

Take `CCNC(=O)Nc1nc2cc(-c3ccccc3)ccc2[nH]1` [Ia-84, 1-Ethyl-3-(5-phenyl-1H-benzoimidazol-2-yl)-urea]: the inhibition at 10 µM was above 75%. As to `CCNC(=O)Nc1nc2cc(-c3cnc(N4CCOCC4)nc3)ccc2[nH]1` [Ia-53], the inhibition at 10 µM was above 75%.

For `CCNC(=O)Nc1nc2cc(-c3cnc(N4CCN(S(C)(=O)=O)CC4)nc3)ccc2[nH]1` [Ia-124], the inhibition at 10 µM fell in the range of 50 to 75%.

Regarding `CCNC(=O)Nc1nc2cc(-c3ccc(F)nc3)ccc2[nH]1` [Ia-136], the inhibition at 10 µM was above 75%. The same measure, in the same setting: with `CCNC(=O)Nc1nc2cc(-c3cccnc3)cc(Cl)c2[nH]1` [Ia-134] the figure was above 75%; with `CCNC(=O)Nc1nc2cc(-c3cnc(N)nc3)ccc2[nH]1` [Ia-54], above 75%. As to `CN1CCCC1C(=O)Nc1nc2cc(-c3ccccc3)ccc2[nH]1` (stereo not drawn) [Ia-85], the inhibition at 10 µM was below 50%.

Turning to `CCNC(=O)Nc1nc2cc(-c3ccccc3)cc(C)c2[nH]1` [Ia-43], the inhibition at 10 µM was above 75%. With `CCOC(=O)Nc1nc2cc(-c3ccccc3C(F)(F)F)ccc2[nH]1` [Ia-9], the inhibition at 10 µM is below 50%. Regarding `CNc1nc2cc(-c3cccnc3)ccc2n1CCN(C)C` [Ia-79], the inhibition at 10 µM is below 50%. The same measure, in the same setting: with `CCNC(=O)Nc1nc2cc(-c3cnc(NCc4ccc(OC)cc4)nc3)ccc2[nH]1` [Ia-49] the figure was above 75%.

On to `CCCNc1nc2cc(-c3cccnc3)ccc2[nH]1` [Ia-74], for which the inhibition at 10 µM was below 50%. As for `CCNC(=O)Nc1nc2cc(-c3cnc(NCc4cccc(F)c4)nc3)ccc2[nH]1` [Ia-56], the inhibition at 10 µM was above 75%. On the same count and under the same terms, with `CCOC(=O)Nc1nc2cc(-c3cncc(N)c3)ccc2[nH]1` [Ia-115] the figure was below 50%; with `CCOC(=O)Nc1nc2cc(-c3cccs3)ccc2[nH]1` [Ia-2], 50 to 75%; with `CCNC(=O)Nc1nc2cc(N3CCOCC3)ccc2[nH]1` [Ia-176], below 50%.

On to `CCNC(=O)Nc1nc2cc(-c3cncc(C(=O)O)c3)ccc2[nH]1` [Ia-60], for which the inhibition at 10 µM was above 75%. On the same count and under the same terms, for `CCNC(=O)Nc1nc2cc(-c3cnc(N4CCCC4COC)nc3)ccc2[nH]1` (stereo not drawn) [Ia-130] the value was above 75%; for `CCOC(=O)Nc1nc2cc(-c3cccnc3)cc(Br)c2[nH]1` [Ia-17], above 75%; for `CCNC(=O)Nc1nc2cc(-c3ccc(OC)nc3)ccc2[nH]1` [Ia-132], above 75%. Still for that read-out and setting: with `CCNC(=O)Nc1nc2cc(-c3cnc(NCC4CCCO4)nc3)ccc2[nH]1` (stereo not drawn) [Ia-47] the figure was above 75%; with `CCCc1cc(-c2ccccc2)cc2nc(NC(=O)OCC)[nH]c12` [Ia-13], below 50%. Still for that read-out and setting: with `CCNC(=O)Nc1nc2cc(-c3cnc(NCCC4CCCN4C)nc3)ccc2[nH]1` (stereo not drawn) [Ia-106] the figure was above 75%; with `CCNC(=O)Nc1nc2cc(-c3cnc(NC4CCCC4)nc3)ccc2[nH]1` [Ia-57], above 75%; with `CCNC(=N)Nc1nc2cc(-c3ccccc3)ccc2[nH]1` [Ia-101], below 50%. In the case of `Nc1nc2cc(-c3ccccc3)ccc2[nH]1` [Ia-6], the inhibition at 10 µM is below 50%. On the same count and under the same terms, for `CCOC(=O)Nc1nc2cc(-c3ccc4[nH]c(NC(=O)OCC)nc4c3)ccc2[nH]1` [Ia-67] the value was above 75%; for `CCNC(=S)Nc1nc2cc(-c3cccnc3)ccc2[nH]1` [Ia-34], above 75%; for `CN(C)CCn1c(N)nc2cc(-c3cccnc3)ccc21` [Ia-78], below 50%. The same measure, in the same setting: for `CCNC(=O)Nc1nc2cc(-c3cncc(C(=O)OCC)c3)ccc2[nH]1` [Ia-59] the value was above 75%; for `COC(=O)Nc1nc2cc(-c3cnc(NCC(=O)OC(C)(C)C)nc3)ccc2[nH]1` [Ia-76], above 75%; for `CCOC(=O)Nc1nc2cc(-c3ccc(N(C)C)cc3)ccc2[nH]1` [Ia-12], 50 to 75%. The same measure, in the same setting: with `CCNC(=O)Nc1nc2cc(-c3cnc(NC(C)COC)nc3)ccc2[nH]1` (stereo not drawn) [Ia-100] the figure was above 75%. Take `CCOC(=O)Nc1nc2cc(-c3cnc(N)nc3)ccc2[nH]1` [Ia-72]: the inhibition at 10 µM was above 75%. The same measure, in the same setting: with `CCOC(=O)Nc1nc2cc(-c3cnc(NC(COC(C)(C)C)C(=O)OC(C)(C)C)nc3)ccc2[nH]1` (stereo not drawn) [Ia-93] the figure was above 75%. The same measure, in the same setting: for `CC(C)(C)OCC(Nc1ncc(-c2ccc3[nH]c(NC#N)nc3c2)cn1)C(=O)OC(C)(C)C` (stereo not drawn) [Ia-41] the value was below 50%; for `CCOC(=O)Nc1nc2cc(-c3cnc(N4CCNCC4)nc3)ccc2[nH]1` [Ia-70], above 75%; for `CCOC(=O)Nc1nc2cc(-c3cccc(C(=O)O)c3)ccc2[nH]1` [Ia-24], above 75%. Turning to `CCCN(CC1CC1)c1ncc(-c2ccc3[nH]c(NC(=O)NCC)nc3c2)cn1` [Ia-127], the inhibition at 10 µM is above 75%. For the compound `CCNC(=O)Nc1nc2cc(-c3cnc(NCc4ccc5c(c4)OCO5)nc3)ccc2[nH]1` [Ia-128], the inhibition at 10 µM was above 75%. On the same count and under the same terms, with `CCCCNc1nc2cc(-c3cccnc3)ccc2[nH]1` [Ia-73] the figure was below 50%; with `CCNC(=O)Nc1nc2cc(-c3cnc(NCCN4CCCC4)nc3)ccc2[nH]1` [Ia-55], above 75%. On to `CCNC(=O)Nc1nc2cc(-c3ccc(CNC(=O)OC(C)(C)C)cc3)ccc2[nH]1` [Ia-135], for which the inhibition at 10 µM was above 75%. Regarding `CCOC(=O)Nc1nc2cc(-c3ccncc3)ccc2[nH]1` [Ia-4], the inhibition at 10 µM is above 75%. As for `CCNC(=O)Nc1nc2cc(C(=O)NOC(C)(C)C)ccc2[nH]1` [Ia-46], the inhibition at 10 µM was below 50%.

Turning to `CCNC(=O)Nc1nc2cc(-c3ccccc3)cc(Br)c2[nH]1` [Ia-89], the inhibition at 10 µM was above 75%. For `CCNC(=O)Nc1nc2cc(-c3cnc(NC4CC4)nc3)ccc2[nH]1` [Ia-44], the inhibition at 10 µM is above 75%.

Consider `CCOC(=O)Nc1nc2cc(-c3cc(F)c(F)cc3F)ccc2[nH]1` [Ia-14], for which the inhibition at 10 µM was 50 to 75%. Same read-out and setting: for `CCNC(=O)Nc1nc2cc(-c3cnc(N4CCN(C(C)=O)CC4)nc3)ccc2[nH]1` [Ia-113] the value was above 75%. In the case of `CCOC(=O)Nc1nc2cc(-c3ccc(OC)nc3)ccc2[nH]1` [Ia-18], the inhibition at 10 µM was above 75%. On to `CCNC(=O)Nc1nc2cc(-c3cnc(N)nc3)c(F)cc2[nH]1` [Ia-131], for which the inhibition at 10 µM was above 75%. Same read-out and setting: for `O=C(Nc1nc2cc(-c3ccccc3)cc(Br)c2[nH]1)N1CCCCC1` [Ia-20] the value was below 50%. `CCNC(=O)Nc1nc2cc(-c3cccc(F)c3)ccc2[nH]1` [Ia-155]: the inhibition at 10 µM was below 50%. As to `CCN/C(=N\C)Nc1nc2cc(-c3ccccc3)ccc2[nH]1` [Ia-97], the inhibition at 10 µM is below 50%. The same measure, in the same setting: with `CCOC(=O)Nc1nc2cc(-c3cnc(NC(CO)C(=O)O)nc3)ccc2[nH]1` (stereo not drawn) [Ia-94] the figure was above 75%; with `CCCC(=O)Nc1nc2cc(-c3ccccc3)ccc2[nH]1` [Ia-82], below 50%; with `CCOC(=O)Nc1nc2cc(-c3ccc(OC)c(OC)c3)ccc2[nH]1` [Ia-26], 50 to 75%. Regarding `CCNC(=O)Nc1nc2cc(-c3cnc(N4CCC(O)CC4)nc3)ccc2[nH]1` [Ia-125], the inhibition at 10 µM was above 75%. Still for that read-out and setting: with `CCOC(=O)Nc1nc2cc(-c3cnc(N4CCN(S(C)(=O)=O)CC4)nc3)ccc2[nH]1` [Ia-91] the figure was below 50%; with `CCOC(=O)Nc1nc2cc(-c3cnc(OC)nc3OC)ccc2[nH]1` [Ia-16], above 75%; with `CCNC(=O)Nc1nc2cc(-c3cccnc3)cc(F)c2[nH]1` [Ia-103], above 75%. Still for that read-out and setting: for `CCOC(=O)Nc1nc2cc(-c3cnc(N4CCN(C(=O)OC(C)(C)C)CC4)nc3)ccc2[nH]1` [Ia-69] the value was 50 to 75%. Still for that read-out and setting: for `COC(=O)Nc1nc2cc(-c3ccccc3)ccc2[nH]1` [Ia-7] the value was below 50%; for `CCOC(=O)Nc1ncc(-c2ccc3[nH]c(NC(=O)OCC)nc3c2)cn1` [Ia-77], above 75%; for `CCOC(=O)Nc1nc2cc(-c3ccccn3)ccc2[nH]1` [Ia-3], 50 to 75%. Take `CCNC(=O)Nc1nc2cc(-c3cnc(N4CCCC4)nc3)ccc2[nH]1` [Ia-65]: the inhibition at 10 µM was above 75%.
